{"source": "paper PMC12206033", "about": "“Selective inhibition of TRPV3 channel by natural rosmarinic acid and its analogs for alleviation of skin lesions through downregulation of NF-κB pathway” (The Journal of Biological Chemistry, 2025)", "key": {"[1]": {"biological_target": "T1, hTRPV3 (Homo sapiens, UniProt Q8NET8)", "T1 construct": "expressed in transfected cells; host or cells: HEK293T", "T1 sequence (Q8NET8 1-790)": "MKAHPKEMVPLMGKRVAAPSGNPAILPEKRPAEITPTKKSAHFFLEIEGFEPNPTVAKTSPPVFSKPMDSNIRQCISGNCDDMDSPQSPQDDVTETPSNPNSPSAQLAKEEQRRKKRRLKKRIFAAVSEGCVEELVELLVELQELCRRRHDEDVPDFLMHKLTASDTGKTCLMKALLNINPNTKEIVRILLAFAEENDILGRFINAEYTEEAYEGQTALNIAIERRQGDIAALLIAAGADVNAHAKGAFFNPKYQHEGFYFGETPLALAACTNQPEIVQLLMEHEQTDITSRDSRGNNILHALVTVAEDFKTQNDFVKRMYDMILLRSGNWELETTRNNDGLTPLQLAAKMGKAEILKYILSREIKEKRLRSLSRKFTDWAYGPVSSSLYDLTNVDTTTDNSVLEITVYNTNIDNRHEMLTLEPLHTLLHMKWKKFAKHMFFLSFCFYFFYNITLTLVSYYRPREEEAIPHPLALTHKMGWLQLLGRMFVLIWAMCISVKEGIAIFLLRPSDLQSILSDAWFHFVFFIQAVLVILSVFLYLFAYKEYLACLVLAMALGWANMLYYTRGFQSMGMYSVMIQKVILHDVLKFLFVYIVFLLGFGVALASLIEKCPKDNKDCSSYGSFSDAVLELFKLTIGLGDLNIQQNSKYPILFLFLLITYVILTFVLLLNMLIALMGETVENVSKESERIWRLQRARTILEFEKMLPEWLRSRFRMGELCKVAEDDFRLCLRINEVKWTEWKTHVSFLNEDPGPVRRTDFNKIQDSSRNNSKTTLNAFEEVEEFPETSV", "experiment": "whole-cell patch-clamp of hTRPV3 currents in HEK293T cells activated by 2-APB", "format": "cell-based", "conditions": "for inhibition at 50 µM: agonist 2-APB 50 μM", "procedure": "HEK293T cell line was obtained from the Cell Resource Center, Peking Union Medical College. HEK293T cells were maintained in Dulbecco’s modified Eagle’s medium (DMEM, Gibco) supplemented with 10% fetal bovine serum at 37 °C with 5% CO2. HEK293T cells were seeded onto glass coverslips 1 day in advance and transiently transfected with […] complementary deoxyribonucleic acids of human TRPV3 (hTRPV3, accession number NM_145068.4), hTRPV1 (accession number NM_080704.3), mTRPV2 (accession number NM_011706.2), hTRPV4 (accession number NM_021625.5), hTRPA1 (accession number NM_007332.3), and hTRPM8 (accession number NM_024080.5) through Lipofectamine 2000 (Invitrogen) following the manufacture’s protocol. The next day, determine the plasmid transfection status by observing green fluorescence based on expression of enhanced GFP as an indicator. All WT or mutant hTRPV3 complementary deoxyribonucleic acid plasmids were confirmed by DNA sequencing. When conducting experiments on HEK293T cells transfected with G573S point mutant TRPV3 plasmid, we replaced culture medium with or without compounds after 4 h of transfection and then observed green fluorescence of HEK293T cell after 10 h. As for the relative fluorescence intensity, we convert the image to 8 bit grayscale using ImageJ (Https://imagej.net/software/fiji/downloads) and set an appropriate threshold value to reduce background noise and enhance the image contrast.\nAll patch-clamp recordings were conducted 16 to 24 h after transfection using an EPC10 amplifier powered by PatchMaster software (HEKA) (https://www.heka.com/downloads/downloads_main.html#down_patchmaster) at room temperature. The borosilicate glass pipettes were pulled using a DMZ universal electrode puller (Zeitz-Instruments GmbH) to achieve the resistances of three to 5 MΩ (for whole-cell recordings) or five to 9 MΩ (for inside-out patch recordings). Currents were recorded at a potential ramp from −100 mV to +100 mV for 1000 ms with 1000-ms intervals (for whole-cell recordings) or a persistent potential of −60 mV (inside-out patch recordings). Both pipette solution and bath solution contained (in mM): 130 NaCl, 3 Hepes, and 0.2 EDTA (pH = 7.2–7.4). All recording data were analyzed using Igor Pro (Wave-metrics) (https://www.wavemetrics.com/order/order_igordownloads.htm) and Origin 8.6 (Origin Lab) (https://www.originlab.com/doc/zh/Quick-Help/Download-Installer)."}, "[2]": {"biological_target": "T2, TRPV3 T665A (Homo sapiens, UniProt Q8NET8, T665A)", "T2 construct": "expressed in transfected cells; host or cells: HEK293T", "T2 sequence (Q8NET8 1-790 T665A)": "T1 sequence (Q8NET8 1-790) with T665A", "experiment": "whole-cell patch-clamp of hTRPV3 T665A mutant currents", "format": "cell-based", "conditions": "ROSA 100 μM; 2-APB; read-out: inhibition of macroscopic hTRPV3 T665A currents", "procedure": "HEK293T cell line was obtained from the Cell Resource Center, Peking Union Medical College. HEK293T cells were maintained in Dulbecco’s modified Eagle’s medium (DMEM, Gibco) supplemented with 10% fetal bovine serum at 37 °C with 5% CO2. […] The next day, determine the plasmid transfection status by observing green fluorescence based on expression of enhanced GFP as an indicator. […] When conducting experiments on HEK293T cells transfected with G573S point mutant TRPV3 plasmid, we replaced culture medium with or without compounds after 4 h of transfection and then observed green fluorescence of HEK293T cell after 10 h. As for the relative fluorescence intensity, we convert the image to 8 bit grayscale using ImageJ (Https://imagej.net/software/fiji/downloads) and set an appropriate threshold value to reduce background noise and enhance the image contrast.\nAll patch-clamp recordings were conducted 16 to 24 h after transfection using an EPC10 amplifier powered by PatchMaster software (HEKA) (https://www.heka.com/downloads/downloads_main.html#down_patchmaster) at room temperature. […] Currents were recorded at a potential ramp from −100 mV to +100 mV for 1000 ms with 1000-ms intervals (for whole-cell recordings) or a persistent potential of −60 mV (inside-out patch recordings). […]"}}, "note": "Numbering of substitutions follows the chain as printed. Read-outs that look alike come from different tables or passages of the source."}
{"compound": "O=C(/C=C/c1ccc(O)c(O)c1)O[C@H](Cc1ccc(O)c(O)c1)C(=O)O", "note": "[ROSA, rosmarinic acid]", "values": [{"measurement": "IC50", "setting": "[1]", "value": "12.4 ± 4.2", "unit": "µM"}, {"measurement": "inhibition at 50 µM", "setting": "[1]; HEK-293T, ROSA 50 μM, Fig. 2G, read-out: inhibition of TRPV3 currents", "value": "~74.3", "unit": "%"}, {"measurement": "inhibition at 100 µM", "setting": "[1]; HEK-293T, ROSA 100 μM, 2-APB, WT, read-out: inhibition of macroscopic WT hTRPV3 currents", "value": 87, "unit": "%"}, {"measurement": "inhibition at 50 µM", "setting": "[1]; HEK-293T, compound 50 μM, Fig. 3I, n = 4-5, read-out: inhibition of hTRPV3 currents", "value": "~75.3", "unit": "%"}, {"measurement": "inhibition at 100 µM", "setting": "[2]", "value": 19.1, "unit": "%"}]}
